Source: the NIST ThermoML archive (doi:10.1016/j.tca.2014.05.029)
± gives the expanded uncertainty stated by the source.

Columns and labels:
[1] = Crystal; DTA
[2] = Molar enthalpy of transition or fusion; conditions: Crystal; DSC
[3] = molar heat capacity at constant pressure; conditions: 101.33 kPa, Liquid, Small sample (50 mg) DSC

OC[C@H]1O[C@@](CO)(O[C@H]2O[C@H](CO)[C@@H](O)[C@H](O)[C@H]2O)[C@@H](O)[C@@H]1O [D-sucrose]
Conditions | Molar enthalpy of transition or fusion [kcal/mol] | Normal melting temperature [°C]
[1] | – | 151.2 ± 0.5
[2] | 7.65 ± 0.239 | –

[3]
Conditions | molar heat capacity at constant pressure [J/K/mol]
331 K | 746.98 ± 15
340 K | 756.97 ± 15
350 K | 768.07 ± 15
360 K | 779.17 ± 16
370 K | 790.27 ± 16
380 K | 801.37 ± 16
390 K | 812.47 ± 16
400 K | 823.57 ± 16
410 K | 834.67 ± 17
420 K | 845.77 ± 17
424 K | 850.21 ± 17
430 K | 856.87 ± 17
440 K | 867.97 ± 17
450 K | 879.07 ± 18
460 K | 890.17 ± 18
470 K | 901.27 ± 18
480 K | 912.37 ± 18
490 K | 923.47 ± 18
500 K | 934.57 ± 19
510 K | 945.67 ± 19
520 K | 956.77 ± 19
530 K | 967.87 ± 19
540 K | 978.97 ± 20
550 K | 990.07 ± 20
560 K | 1001.2 ± 20
570 K | 1012.3 ± 20
580 K | 1023.4 ± 20
590 K | 1034.5 ± 21
600 K | 1045.6 ± 21
